US6825236B2, “Colchicine derivatives” (California Pacific Medical Center, priority 2003, dated 2004)

System: HCT116
Assay: Cell colony formation assay
Type: cell-based
Settings: 72 hours with drug, colonies counted after 7 days
Method: This example provides directions for growing cells and testing compounds of the invention for their effect on the growth of the cells. All cells were purchased from DCTDC Tumor Repository, NCI, NIH.
Cell Colony Formation Assay
Four hundred cells (HCT 116, PC-3) or five hundred cells (VM46) were plated in 60 mm Petri dishes containing 2.7 ml of medium (modified McCoy's 5a medium) containing 10% fetal bovine serum and 100 units/ml penicillin and […] streptomycin. The cells were incubated in a CO2 incubator at 37° C. for 5 hours for attachment to the bottom of Petri dishes. Drugs were made fresh in medium at ten times the final concentration, and then 0.3 ml of this stock solution was added to the 2.7 ml of medium in the dish. The cells were then incubated with drugs for 72 hours at 37° C. At the end of the incubation the drug-containing media were decanted, the dishes were rinsed with 4 ml of Hank's Balance Salt Solution (HBSS), 5 ml of fresh medium was added, and the dishes were returned to the incubator for colony formation. The cell colonies were counted using colony counter after incubation for 7 days for HCT116 cells and PC-3 cells and 8 days for VM46 cells, respectively.
Values of ID50 (the drug concentration producing 50% inhibition of colony formation) may be determined for each tested compound. The directions described in this example may be used in other cells, such as DU-145.

Structure (SMILES)	Survival (%) of HCT116 (100 nM) [%]	Survival (%) of HCT116 (10 nM) [%]	Survival (%) of HCT116 (1 nM) [%]
CCC(=C(CC)c1ccc(OCC(=O)NC2CCc3cc(OC)c(OC)c(OC)c3-c3ccc(SC)c(=O)cc32)cc1)c1ccc(OCC(=O)NC2CCc3cc(OC)c(OC)c(OC)c3-c3ccc(SC)c(=O)cc32)cc1 (centres unmarked) [Compound 000828, Dimer of N-Deacetylthiocolchicine]	93.81		
COc1cc2c(c(OC)c1OC)-c1ccc(SC)c(=O)cc1C(NC(=O)CSc1cc(C)c(Cl)cc1Cl)CC2 (centres unmarked) [Compound 000831]	89.15		
COc1cc2c(c(OC)c1OC)-c1ccc(SC)c(=O)cc1C(NC(=O)CCc1cccnc1)CC2 (centres unmarked) [Compound 000901, N-Deacetyl-N-(3-pyridinepropionyl)thiocolchicine]	0	61.60	
COc1cc2c(c(OC)c1OC)-c1ccc(SC)c(=O)cc1C(NC(=O)Cn1cc(C)c(=O)[nH]c1=O)CC2 (centres unmarked) [Compound 000905, N-Deacetyl-N-(thymine-1-acetyl)thiocolchicine]	96.66		
COc1cc2c(c(OC)c1OC)-c1ccc(SC)c(=O)cc1C(NC(=O)c1ccc3c(c1)C(=O)c1ccccc1C3=O)CC2 (centres unmarked) [Compound 000908, N-Deacetyl-N-(anthraquinone-2-carbonyl)thiocolchicine]	0	100	
COc1cc2c(c(OC)c1OC)-c1ccc(SC)c(=O)cc1C(NC(=O)COc1c(F)c(F)c(F)c(F)c1F)CC2 (centres unmarked) [Compound 000912, N-Deacetyl-N-(2,3,4,5,6-pentafluorophenoxyacetyl)thiocolchicine]	0.50	100	
COc1cc2c(c(OC)c1OC)-c1ccc(SC)c(=O)cc1C(NC(=O)C(C)ON=C1c3cc([N+](=O)[O-])cc([N+](=O)[O-])c3-c3c1cc([N+](=O)[O-])cc3[N+](=O)[O-])CC2 (stereo not drawn) [Compound 000913, N-Deacetyl-N-[(+)-2-(2,4,5,7-tetranitro-9-fluorenylideneaminooxy)propionyl]thiocolchicine]	1.00	90.91	
COc1cc2c(c(OC)c1OC)-c1ccc(SC)c(=O)cc1C(NC(=O)C1CCCN1C(=O)OC(C)(C)C)CC2 (centres unmarked) [Compound 000915, N-Deacetyl-N-(1-t-butoxycarbonyl-2-pyrrolidinecarbonyl)thiocolchicine]	70.12		
COc1cc2c(c(OC)c1OC)-c1ccc(SC)c(=O)cc1C(NC(=O)Cn1cnnn1)CC2 (centres unmarked) [Compound 000918, N-Deacetyl-N-(1H-tetrazole-1-acetyl)thiocolchicine]	13.61		
COc1cc2c(c(OC)c1OC)-c1ccc(SC)c(=O)cc1[C@@H](NC(=O)c1cn(C)c3nc(C)ccc3c1=O)CC2 [Compound 000920, N-Deacetyl-N-(1,7-dimethylnaphthyridin-4-one-3-carboxy)thiocolchicine]	95.68		
COc1cc2c(c(OC)c1OC)-c1ccc(SC)c(=O)cc1C(NC(=O)CSc1ccc(Cl)cc1)CC2 (centres unmarked) [Compound 000921, N-Deacetyl-N-[(4-chlorophenylthio)acetyl]thiocoichicine]	0	96.18	
COc1cc2c(c(OC)c1OC)-c1ccc(SC)c(=O)cc1C(NC(=O)CSc1ccncc1)CC2 (centres unmarked) [Compound 000922, N-Deacetyl-N-(4-pyridylthioacetyl)thiocolchicine]	0	0	100
COc1cc2c(c(OC)c1OC)-c1ccc(SC)c(=O)cc1C(NC(=O)CCN1C(=O)c3ccccc3C1=O)CC2 (centres unmarked) [Compound 000925, N-Deacetyl-N-(3-phthalimidopropionyl)thiocolchicine]	0	98.67	
COc1cc2c(c(OC)c1OC)-c1ccc(SC)c(=O)cc1C(NC(=O)CCC(=O)c1ccc(Br)cc1)CC2 (centres unmarked) [Compound 000926, N-Deacetyl-N-(3-[4-bromobenzoyl]propionyl)thiocolchicine]	0	100	
